# Results reported in patent US11459338B2, “Heterocyclic compounds as PRMT5 inhibitors” (JUBILANT EPISCRIBE LLC, priority 2018, dated 2022).
# Where two headings read alike, the source gives them in different places.
# How the values were obtained:
# [1] = tested on: Symmetric di-methyl arginine in Z-138 cells; test: Z-138 methylation assay, ELISA for detection of symmetric di-methyl arginine; assay type: cell-based; conditions: Homo sapiens
# Description: General reagents. […] Iscove's Modified Dulbecco's Medium (IMDM), Horse serum, penicillin-streptomycin, PBS and TMB-ELISA substrate solution were purchased from ThermoFisher Scientific. Symmetric di-methyl arginine antibody was purchased from Cell Signaling Technologies.Anti-SNRPD3/SmD3 antibody was purchased from Sigma-Aldrich.
# ELISA for detection of Symmetric di-methyl arginine. […] A compound source plate was prepared by performing ten-point 3-fold dilution in DMSO, such that the final top concentration of the compound was 10 μM, and DMSO was 0.3%. The total volume of compounds added was 20 μL. The cells were incubated for 96 h at 37° C., 5% CO2. Z-138 cells were directly lysed in media with 3× Lysis Buffer (1×: 10 mM HEPES pH7.9, 5 mM MgCl2, 1M NaCl, 0.25M Sucrose, 1% Triton X-100, 1 mM PMSF, Protease & Phosphatase inhibitors). […] Plates were incubated at room temperature for a minimum of 3 h and then washed with PBS-Tween 20 (0.05%). The plates were blocked with 5% BSA at room temperature for 1 h, washed with PBS-Tween 20 and incubated with primary antibody at 4 C overnight.
# Z-138 cells = test: Z-138 long term proliferation assay (Cell Titer Glo); assay type: cell-based; conditions: Homo sapiens; for GI50: 192 h, Z-138 cells, cell viability, day 8, read-out: PRMT5 Z138 GI50 Day 8 μM; for IC50: Z-138, 192 h, summary of Table 1, read-out: IC50 value (all the three assays): Z138 GI50 Day 8
# In short: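 Z-138 cells exposed to ten-point 3-fold dilutions (top 10 μM, 0.3% DMSO) for 96 h at 37° C., 5% CO2, then re-dosed for four more days.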
# PRMT5/MEP50 = target: T1, PRMT5/MEP50 (Homo sapiens, UniProt O14744); test: PRMT5/MEP50 enzyme assay on peptide substrates (3H-SAM Flashplate); assay type: biochemical; conditions: PRMT5/MEP50 10 nM, H4 1-15aa peptide 100 nM, 3H-SAM 1 μM
# T1 construct: Full-length human PRMT5 (NP_006100)
# [2] = Z-138, 96 h, summary of Table 1, read-out: IC50 value (all the three assays): Z138 SDMA ELISA Day 4
# [3] = Z-138 cells, 96 h (day 4), read-out: PRMT5 Z138 SDMA ELISA Day 4 μM
# T1 sequence (O14744 whole entry): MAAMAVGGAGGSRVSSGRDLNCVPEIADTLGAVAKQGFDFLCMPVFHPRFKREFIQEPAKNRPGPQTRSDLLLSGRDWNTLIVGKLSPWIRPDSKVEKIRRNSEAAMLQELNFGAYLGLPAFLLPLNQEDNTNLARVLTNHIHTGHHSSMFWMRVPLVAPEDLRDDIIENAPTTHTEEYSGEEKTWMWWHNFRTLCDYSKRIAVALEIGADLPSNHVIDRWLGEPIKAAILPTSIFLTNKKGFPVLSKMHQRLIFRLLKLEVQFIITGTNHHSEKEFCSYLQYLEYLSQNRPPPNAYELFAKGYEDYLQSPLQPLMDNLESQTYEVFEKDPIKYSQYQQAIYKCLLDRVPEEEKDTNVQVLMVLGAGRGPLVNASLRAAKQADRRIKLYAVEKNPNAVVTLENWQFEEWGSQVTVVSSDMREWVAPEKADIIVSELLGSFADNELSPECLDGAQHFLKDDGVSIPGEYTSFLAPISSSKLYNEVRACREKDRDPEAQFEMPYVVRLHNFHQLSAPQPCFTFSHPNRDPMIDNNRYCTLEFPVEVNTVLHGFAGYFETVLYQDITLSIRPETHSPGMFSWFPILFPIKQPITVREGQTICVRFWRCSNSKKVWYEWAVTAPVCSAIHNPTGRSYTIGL
# T1 sequence (Q9BQA1 whole entry partner): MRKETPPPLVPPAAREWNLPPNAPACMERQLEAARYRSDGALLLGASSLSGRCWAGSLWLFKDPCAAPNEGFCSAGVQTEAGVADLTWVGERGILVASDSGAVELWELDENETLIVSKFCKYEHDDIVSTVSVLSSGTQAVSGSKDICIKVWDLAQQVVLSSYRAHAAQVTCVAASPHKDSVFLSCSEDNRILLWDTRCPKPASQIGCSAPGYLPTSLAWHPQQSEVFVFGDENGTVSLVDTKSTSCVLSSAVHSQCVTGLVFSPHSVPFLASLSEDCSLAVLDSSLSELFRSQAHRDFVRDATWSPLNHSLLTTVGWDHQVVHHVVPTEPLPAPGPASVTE
"IC50 [1, 2] [µM]","IC50 [1, 3] [µM]",IC50 (PRMT5/MEP50) [µM],Compound,GI50 (Z-138 cells) [µM],IC50 (Z-138 cells) [µM]
0.01 to 1,0.01 to 1,0.01 to 1,"CC(C)c1ccc2nc(C(=O)NCC(O)CN3CCc4ccccc4C3)cn2c1 (stereo in doubt) [Example 12, (S)—N-(3-(3,4-dihydroisoquinolin-2(1H)-yl)-2-hydroxypropyl)-6-isopropylimidazo [1,2-a]pyridine-2-carboxamide]",0.01 to 1,0.01 to 1
0.01 to 1,0.01 to 1,0.01 to 1,"Cc1noc(C)c1-c1ccc2nc(C(=O)NC[C@H](O)CN3CCc4ccccc4C3)cn2c1 [Example 15, (S)—N-(3-(3,4-dihydroisoquinolin-2(1H)-yl)-2-hydroxypropyl)-6-(3,5-dimethylisoxazol-4-yl)imidazo[1,2-a]pyridine-2-carboxamide]",0.01 to 1,0.01 to 1
,0.01 to 1,> 5,"CS(=O)(=O)Nc1ccc2nc(C(=O)NC[C@H](O)CN3CCc4ccccc4C3)cn2c1 [Example 41, (S)—N-(3-(3,4-dihydroisoquinolin-2(1H)-yl)-2-hydroxypropyl)-6-(methylsulfonamido)imidazo[1,2-a]pyridine-2-carboxamide]",0.01 to 1,
,0.01 to 1,0.01 to 1,"CC(=O)Nc1ccc2nc(C(=O)NC[C@H](O)CN3CCc4ccccc4C3)cn2c1 [Example 39, (S)-6-acetamido-N-(3-(3,4-dihydroisoquinolin-2(1H)-yl)-2-hydroxypropyl)imidazo[1,2-a]pyridine-2-carboxamide]",1 to 5,
0.01 to 1,0.01 to 1,0.01 to 1,"CC(C)Cn1cc(-c2ccc3nc(C(=O)NCC(O)CN4CCc5ccccc5C4)cn3c2)cn1 (stereo in doubt) [Example 18, (S)—N-(3-(3,4-dihydroisoquinolin-2(1H)-yl)-2-hydroxypropyl)-6-(1-isobutyl-1H-pyrazol-4-yl)imidazo[1,2-a]pyridine-2-carboxamide]",0.01 to 1,0.01 to 1
,0.01 to 1,1 to 5,"COc1ccc2nc(C(=O)NCC(O)CN3CCc4ccccc4C3)cn2c1 (stereo not drawn) [Example 9, N-(3-(3,4-dihydroisoquinolin-2(1H)-yl)-2-hydroxypropyl)-6-methoxyimidazo [1,2a]pyridine-2-carboxamide]",1 to 5,
,0.01 to 1,> 5,"Cn1cc(-c2ccc3nc(C(=O)NC[C@H](O)CN4CCc5ccccc5C4)cn3c2)cn1 [Example 13, (S)—N-(3-(3,4-dihydroisoquinolin-2(1H)-yl)-2-hydroxypropyl)-6-(1-methyl-1H-pyrazol-4-yl)imidazo[1,2-a]pyridine-2-carboxamide]",> 5,
0.01 to 1,0.01 to 1,0.01 to 1,"O=C(NCC(O)CN1CCc2ccccc2C1)c1cn2cc(C(F)(F)F)ccc2n1 (stereo not drawn) [Example 1, N-(3-(3,4-dihydroisoquinolin-2(1H)-yl)-2-hydroxypropyl)-6-(trifluoromethyl)imidazo[1,2-a]pyridine-2-carboxamide]",0.01 to 1,0.01 to 1

# Second part, the compound before the results:
Compound,"IC50 [1, 2] [µM]","IC50 [1, 3] [µM]",IC50 (PRMT5/MEP50) [µM],GI50 (Z-138 cells) [µM],IC50 (Z-138 cells) [µM]
"Cn1cc(-c2ccc3nc(C(=O)NC[C@H](O)CN4CCc5ccccc5C4)cn3c2)nn1 [Example 36, (S)—N-(3-(3,4-dihydroisoquinolin-2(1H)-yl)-2-hydroxypropyl)-6-(1-methyl-1H-1,2,3-triazol-4-yl)imidazo[1,2-a]pyridine-2-carboxamide]",0.01 to 1,0.01 to 1,0.01 to 1,0.01 to 1,0.01 to 1
"O=C(NC[C@H](O)CN1CCc2ccccc2C1)c1cn2cc(-c3cnn([C@@H]4CCOC4)c3)ccc2n1 [Example 20, N—((S)-3-(3,4-dihydroisoquinolin-2(1H)-yl)-2-hydroxypropyl)-6-(1-((R)-tetrahydrofuran-3-yl)-1H-pyrazol-4-yl)imidazo[1,2-a]pyridine-2-carboxamide]",0.01 to 1,0.01 to 1,0.01 to 1,0.01 to 1,0.01 to 1
O=C(NCC(O)CNC1Cc2ccccc2C1)c1cn2cc(C(F)(F)F)ccc2n1 (stereo not drawn) [Example 96],0.01 to 1,0.01 to 1,0.01 to 1,0.01 to 1,0.01 to 1
"CC(C)N1CCn2cc(C(=O)NCC(O)CN3CCc4ccccc4C3)nc2C1 (stereo not drawn) [Example 113, N-(3-(3,4-dihydroisoquinolin-2(1H)-yl)-2-hydroxypropyl)-7-isopropyl-5,6,7,8-tetrahydroimidazo [1,2-a] pyrazine-2-carboxamide]",,1 to 5,> 5,> 5,
"CO[C@@H]1CCc2nc(C(=O)NC[C@H](O)CN3CCc4ccccc4C3)cn2C1 [Example 107A, (R)—N—((S)-3-(3,4-dihydroisoquinolin-2(1H)-yl)-2-hydroxypropyl)-6-methoxy-5,6,7,8-tetrahydroimidazo[1,2-a]pyridine-2-carboxamide]",,0.01 to 1,> 5,1 to 5,
"O=C(NC[C@H](O)CN1CCc2ccccc2C1)c1cn2cc(C3=CCOCC3)ccc2n1 [Example 19, (S)-6-(3,6-dihydro-2H-pyran-4-yl)-N-(3-(3,4-dihydroisoquinolin-2(1H)-yl)-2-hydroxypropyl)imidazo[1,2-a]pyridine-2-carboxamide]",0.01 to 1,0.01 to 1,0.01 to 1,0.01 to 1,0.01 to 1
"Cn1ccc(-c2ccc3nc(C(=O)NC[C@H](O)CN4CCc5ccccc5C4)cn3n2)cc1=O [Example 48, (S)—N-(3-(3,4-dihydroisoquinolin-2(1H)-yl)-2-hydroxypropyl)-6-(1-methyl-2-oxo-1,2-dihydropyridin-4-yl)imidazo[1,2-b]pyridazine-2-carboxamide]",0.01 to 1,0.01 to 1,0.01 to 1,0.01 to 1,0.01 to 1
"CC1CCc2nc(C(=O)NCC(O)CN3CCc4ccccc4C3)cn2C1 (stereo not drawn) [Example 102, N-(3-(3,4-dihydroisoquinolin-2(1H)-yl)-2-hydroxypropyl)-6-methyl-5,6,7,8-tetrahydroimidazo[1,2-a]pyridine-2-carboxamide]",,0.01 to 1,1 to 5,0.01 to 1,
"O=C(NC[C@H](O)CN1CCc2ccccc2C1)c1cn2c(n1)CCC(c1ccc(F)cc1)C2 (stereo partly drawn) [Example 115, N—((S)-3-(3,4-dihydroisoquinolin-2(1H)-yl)-2-hydroxypropyl)-6-(4-fluorophenyl)-5,6,7,8-tetrahydroimidazo[1,2-a]pyridine-2-carboxamide]",0.01 to 1,0.01 to 1,0.01 to 1,0.01 to 1,0.01 to 1
"CCCc1nc(-c2ccc3nc(C(=O)NC[C@H](O)CN4CCc5ccccc5C4)cn3c2)no1 [Example 5, (S)—N-(3-(3,4-dihydroisoquinolin-2(1H)-yl)-2-hydroxypropyl)-6-(5-propyl-1,2,4-oxadiazol-3-yl)imidazo[1,2-a]pyridine-2-carboxamide]",0.01 to 1,0.01 to 1,0.01 to 1,0.01 to 1,0.01 to 1
"CC1CCn2cc(C(=O)NCC(O)CN3CCc4ccccc4C3)nc2C1 (stereo not drawn) [Example 103, N-(3-(3,4-dihydroisoquinolin-2(1H)-yl)-2-hydroxypropyl)-7-methyl-5,6,7,8-tetrahydroimidazo[1,2-a]pyridine-2-carboxamide]",,0.01 to 1,1 to 5,0.01 to 1,
"O=C(NC[C@H](O)CN1CCc2ccccc2C1)c1cn2c(n1)COC(c1ccccc1)C2 (stereo partly drawn) [Example 112, N—((S)-3-(3,4-dihydroisoquinolin-2(1H)-yl)-2-hydroxypropyl)-6-phenyl-5,6-dihydro-8H-imidazo[2,1-c][1,4]oxazine-2-carboxamide]",,0.01 to 1,1 to 5,1 to 5,
"Cn1cc(C2CCc3nc(C(=O)NCC(O)CN4CCc5ccccc5C4)cn3C2)cn1 (stereo not drawn) [Example 111, N-(3-(3,4-dihydroisoquinolin-2(1H)-yl)-2-hydroxypropyl)-6-(1-methyl-1H-pyrazol-4-yl)-5,6,7,8-tetrahydroimidazo[1,2-a]pyridine-2-carboxamide]",,0.01 to 1,1 to 5,1 to 5,
"O=C(NC[C@H](O)CN1CCc2ccccc2C1)c1cn2c(n1)CCC(C1CC1)C2 (stereo partly drawn) [Example 104, 6-cyclopropyl-N—((S)-3-(3,4-dihydroisoquinolin-2(1H)-yl)-2-hydroxypropyl)-5,6,7,8-tetrahydroimidazo[1,2-a]pyridine-2-carboxamide]",,0.01 to 1,,1 to 5,
O=C(NC[C@H](O)CN1CCc2ccccc2C1)c1cn2cc(C(F)(F)F)cnc2n1 [Example 42],,0.01 to 1,0.01 to 1,1 to 5,
